In the assay the test system is 317291-083-R-J1-PDC complex spheroids, viability. The experiment in a line: Anticancer human tumor 317291-083-R-J1-PDC patient-derived soft tissue sarcoma cell line growth inhibition [GQUAD]. The conditions noted are these: for viability, T/C: stronger effect = lower value. The source says: DNA G-quadruplex Stabilizer Agents in Combinations in Complex Spheroids
A high-throughput screen of multi-cell type tumor spheroids was designed to identify active combinations of DNA G-quadruplex stabilizer agents and targeted small molecules. Complex spheroids include a stromal component modeled by human endothelial cells (HUVEC) and fibroblasts modeled by human mesenchymal stem cells (MSCs). The concentration ranges selected for each drug and investigational agent were based upon clinically achievable concentrations if the clinical Cmax of the agent was known.
Compounds. The drugs and investigational agents: pidnarulex (CX-5461; NSC782164), APTO-253 (NSC789042), BRACO-19 (NSC847499), peposertib (NSC802822), ceralasertib (NSC780249), elimusertib (NSC800525), camonsertib (NSC841442), AZD-1390 (NSC803789), olaparib (NSC753686), talazoparib (NSC767125), ART-558 (NSC835418), sotorasib (NSC818433), MRTX-1133 (NSC836407), SN-38 (NSC673596), topotecan (NSC609699), etoposide (NSC141540), doxorubicin (NSC123127), gemcitabine (NSC613327), 5-fluorouracil (NSC19893), paclitaxel (NSC125973), vemurafenib (NSC761431), panobinostat (NSC761190), R-306465 (JNJ-16241199; NSC773264), adavosertib (NSC754352), TP-3654 (NSC805149), carboplatin (NSC241240), KSQ-4279 (NSC840948), and staurosporine (NSC755774) were obtained from the National Cancer Institute (NCI) Developmental Therapeutics Program Chemical Repository (34). The FDA-approved anticancer drug set is available from the NCI Developmental Therapeutics Program. […] The stock solutions were prepared in dimethyl sulfoxide (DMSO, Sigma-Aldrich, St. Louis, MO, cat. D2650) at 800-fold the tested concentration and stored at -70 degrees C prior to their use. All drugs and investigational agents were tested over a range starting from a high concentration at or near the clinical Cmax and decreasing in half-log increments. If the clinical Cmax for an agent had not been determined, the highest concentration tested was 10 microM.
2.3 Cell Culture. All cells were maintained in an incubator at 37 degrees C and 5% CO2 with 95% humidity. The PDC lines were cultured according to standard operating procedures established by the NCI PDMR. All PDCs were thawed and cultured in Matrigel-coated flasks prepared with a working solution of 1X Ham's F-12 nutrient mix, without supplementation (Invitrogen, cat. 11765054), 100 U/mL penicillin-streptomycin (Invitrogen, cat. 15140122), and 2.5% Matrigel (Corning Inc., cat. 354248) for the first three passages. The 857933-349-R-J2-PDC line was cultured in 6C/Colon 1B media, which includes advanced DMEM/F-12 (Thermo Fisher Scientific, cat. 12634028), 10 mM HEPES (Thermo Fisher Scientific, cat. 15630080), 1X GlutaMAX supplement (Thermo Fisher Scientific, cat. 35050061), 0.1 mg/mL primocin (InvivoGen, cat. ant-pm-2), 10% defined fetal bovine serum, heat inactivated (HyClone Laboratories Inc., cat. SH30070.03HI), 50% L-WRN conditioned media (ATCC, cat. CRL-3276), 1.25 mM N-Acetyl-L-cysteine (Sigma-Aldrich, cat. A9165), 10 mM nicotinamide (Sigma-Aldrich, cat. N0636), 1X B-27 supplement (Thermo Fisher Scientific, cat. 17504044), 1X N-2 supplement (Thermo Fisher Scientific, cat. 17502048), 10 microM Y-27632 dihydrochloride (Tocris Bioscience, cat. 1254), and 50 ng/mL human EGF recombinant protein (Thermo Fisher Scientific, cat. PHG0311). The 485176-168-R4-J1-PDC line was cultured in Panc media, which includes all 6C/Colon 1B media components plus 100 ng/mL human FGF-10 (Thermo Fisher Scientific, cat. 100-26), 500 nM SB-431542 (Selleckchem, cat. S1067), and gastrin (Tocris, cat. 3006).
[…]

Our source for the IC50 and viability, T/C values is PubChem BioAssay AID2060497 (Molecular Pharmacology Branch, DTP, NCI, 2025).

The structures appear in SMILES notation. Several values for one entry are separate records, joined by “and”; a condition that tells them apart may be missing. Equal entries are not always repeated. Bounds are passed on as bounds.
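Further: spheroids exposed to compounds for one week before readout.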
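Wherever viability, T/C is given: percent viability relative to DMSO vehicle wells taken as 100%.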

As to `O=C(c1cc(Cc2n[nH]c(=O)c3ccccc23)ccc1F)N1CCN(C(=O)C2CC2)CC1` + Cc1cnc(CNC(=O)c2c(=O)c3ccc(N4CCCN(C)CC4)nc3n3c2sc2ccccc23)cn1, the IC50 (in general, the midpoint of a concentration-inhibition curve) runs as follows: (curve of first compound, second compound 0.0316 µM) over 10000 nM; (curve of first compound, second compound 0.1 µM) 2170 nM; (curve of first compound, second compound 0.316 µM) under 31.6 nM; (curve of first compound, second compound 1 µM) under 31.6 nM; (curve of first compound, second compound 3.16 µM) under 31.6 nM; (curve of first compound, second compound 10 µM) under 31.6 nM. Besides, the viability, T/C (as a rule, the result in the treated group divided by that in the control group, in per cent) is, setting by setting: (second compound 0.0316 µM, first compound 0.0316 µM) 101%; (second compound 0.0316 µM, first compound 0.1 µM) 92.4%; (second compound 0.0316 µM, first compound 0.316 µM) 89.7%; (second compound 0.0316 µM, first compound 1 µM) 77.5%; (second compound 0.0316 µM, first compound 3.16 µM) 67.7%; (second compound 0.0316 µM, first compound 10 µM) 59.3%. Further, the viability, T/C reads like this: (second compound 0.1 µM, first compound 0.0316 µM) 88.3%; (second compound 0.1 µM, first compound 0.1 µM) 72.7%; (second compound 0.1 µM, first compound 0.316 µM) 64.5%; (second compound 0.1 µM, first compound 1 µM) 57.6%; (second compound 0.1 µM, first compound 3.16 µM) 53.3%; (second compound 0.1 µM, first compound 10 µM) 31.2%. Besides, the viability, T/C by setting is: (second compound 0.316 µM, first compound 0.0316 µM) 44.7%; (second compound 0.316 µM, first compound 0.1 µM) 43.4%; (second compound 0.316 µM, first compound 0.316 µM) 57.1%; (second compound 0.316 µM, first compound 1 µM) 33.8%; (second compound 0.316 µM, first compound 3.16 µM) 39.2%; (second compound 0.316 µM, first compound 10 µM) 46%. The viability, T/C is 30% (second compound 1 µM, first compound 0.0316 µM); 38.5% (second compound 1 µM, first compound 0.1 µM); 51.5% (second compound 1 µM, first compound 0.316 µM); 26.6% (second compound 1 µM, first compound 1 µM); 24.2% (second compound 1 µM, first compound 3.16 µM); 19.6% (second compound 1 µM, first compound 10 µM). For the same compound, the viability, T/C runs as follows: (second compound 3.16 µM, first compound 0.0316 µM) 17.2%; (second compound 3.16 µM, first compound 0.1 µM) 14.6%; (second compound 3.16 µM, first compound 0.316 µM) 64.8%; (second compound 3.16 µM, first compound 1 µM) 39.8%; (second compound 3.16 µM, first compound 3.16 µM) 32.8%; (second compound 3.16 µM, first compound 10 µM) 14.8%. For the same compound, the viability, T/C is, setting by setting: (second compound 10 µM, first compound 0.0316 µM) 31.1%; (second compound 10 µM, first compound 0.1 µM) 16.8%; (second compound 10 µM, first compound 0.316 µM) 19.1%; (second compound 10 µM, first compound 1 µM) 36.2%; (second compound 10 µM, first compound 3.16 µM) 20.5%; (second compound 10 µM, first compound 10 µM) 15.2%.

In the case of `COc1ncnc(C2CC2)c1-c1ncc2cnn(Cc3ccc(-c4nc(C(F)(F)F)cn4C(C)C)cc3)c2n1`, the viability, T/C reads like this: (compound 0.0316 µM) 103% and 107% and 108%; (compound 0.1 µM) 92.9% and 85.3% and 81.5%; (compound 0.316 µM) 92.4% and 71.4% and 68.1%; (compound 1 µM) 74.2% and 64.1% and 68.2%; (compound 3.16 µM) 100% and 63.6% and 68.3%; (compound 10 µM) 76.2% and 72.3% and 64.5%. Further, the IC50 (curve of compound) is over 10000 nM.

Regarding `CC1COCCN1c1cc(C2(O)CC3CCC(C2)O3)c2cnn(-c3ccn[nH]3)c2n1` (stereo unspecified), the viability, T/C by setting is: (compound 0.0316 µM) 57.9% and 71.5% and 44.9%; (compound 0.1 µM) 37.3% and 29.8% and 26.9%; (compound 0.316 µM) 14.3% and 11.5% and 14.8%; (compound 1 µM) 20.7% and 20.3% and 15.5%; (compound 3.16 µM) 14.6% and 11.3% and 12.4%; (compound 10 µM) 2.47% and 3.18% and 2.04%. In addition, the IC50 (curve of compound) was 46.9 nM and 56.9 nM and < 31.6 nM.
